Source: US7439418B2, “Anti-microbial peptide known as halocyntin, gene coding for said peptide, vector, transformed organism and composition containing said peptide” (Centre National de la Recherche Scientifique - CNRS, priority 2003, dated 2008)
Where no end group is shown, it is not given here.

How the values were obtained:
Format in all cases: cell-based
sheep erythrocytes = test: Hemolytic activity on sheep erythrocytes
Experimental: A known quantity of peptide was placed in a solution containing […] acetic acid and 0.2% bovine serum albumin (BSA) in such a manner as to obtain a stock solution with a concentration of […]; then, serial dilutions of this solution were realized in the same solution of 0.01% acetic acid and 0.2% BSA (AA-BSA). […] of each of these solutions or […] of a 10% Triton X-100 solution in PBS (control—peptide) were then added to 180 μl of a solution containing 2.5% (volume/volume) of the suspension of sheep erythrocytes in PBS. The mixture was then incubated 30 minutes at 37° C. then submitted to a centrifugation that 10000 g for 3 minutes. Finally, the supernatant was recovered and its absorbance measured at 600 nm. The percentage of hemolysis is then calculated with the following equation: % hemolysis=(A600 of the sample−A600 of control-peptide)/(A600 control 100% hemolysis−A600 control-peptide)×100.

B. megaterium = test: Minimal bactericidal concentration (MBC); details: Mueller Hinton, 18 hours of incubation
Experimental: (§1) The minimal bactericidal concentration (MBC) for each bacterial strain tested was determined as follows: The peptide was placed in a solution containing 0.01% acetic acid and 0.2% bovine serum albumin (BSA), then, serial dilutions of 2 in 2 are realized in the same 0.01% solution of acetic acid and 0.2% BSA. 10 μl of each dilution are incubated in sterile 96-well plates (Becton Dickinson, USA, ref: 18572) in the presence of 100 μl of a bacterial suspension brought to an optical density of 0.001 at 600 nm in the Mueller Hinton environment (MHB, SIGMA, ref: M-9677).
(§2) The bacterial growth is monitored after 18 hours of incubation under agitation. The MBC is determined by spreading out the content of the first three wells in which no bacterial growth was observed. This spreading out was carried out on Petri dishes on which an agar was poured prepared from the Mueller Hinton environment. These dishes were then incubated 18 hours. The MBC corresponds to the lowest concentration of peptide for which no bacterial colony was observed on the incubated dishes.

K. pneumoniae = test: Minimal bactericidal concentration (MBC); details: Mueller Hinton, 18 hours of incubation
Experimental: as §1, §2

E. aerogenes = test: Minimal bactericidal concentration (MBC); details: Mueller Hinton, 18 hours of incubation
Experimental: as §1, §2

S. aureus = test: Minimal bactericidal concentration (MBC); details: Mueller Hinton, 18 hours of incubation
Experimental: as §1, §2

E. faecalis = test: Minimal bactericidal concentration (MBC); details: Mueller Hinton, 18 hours of incubation
Experimental: as §1, §2

A. viridans = test: Minimal bactericidal concentration (MBC); details: Mueller Hinton, 18 hours of incubation
Experimental: as §1, §2

N. gonorrhoeae = test: Minimal bactericidal concentration (MBC); details: Mueller Hinton, 18 hours of incubation
Experimental: as §1, §2

M. luteus = test: Minimal bactericidal concentration (MBC); details: Mueller Hinton, 18 hours of incubation
Experimental: as §1, §2

P. aeruginosa = test: Minimal bactericidal concentration (MBC); details: Mueller Hinton, 18 hours of incubation
Experimental: as §1, §2

S. typhimutium = test: Minimal bactericidal concentration (MBC); details: Mueller Hinton, 18 hours of incubation
Experimental: as §1, §2

E. coli DH5α = test: Minimal bactericidal concentration (MBC); details: Mueller Hinton, 18 hours of incubation
Experimental: as §1, §2

FWGHIWNAVKRVGANALHGAVTGALS [halocyntin]
hemolytic activity (sheep erythrocytes; beyond 12.5 mM): very faint hemolytic activity
hemolytic activity (sheep erythrocytes; concentration of 50 μM, 30 minutes at 37° C.): 5.8%
hemolytic activity (sheep erythrocytes; up to concentrations of 12.5 mM): does not show any hemolytic activity
MBC (B. megaterium): 0.75 to 1.56 µM
MBC (K. pneumoniae): 12.5 to 25 µM
MBC (E. aerogenes): 25 to 50 µM
MBC (S. aureus): 6.25 to 12.5 µM
MBC (E. faecalis): 6.25 to 12.5 µM
MBC (A. viridans): 3.13 to 6.25 µM
MBC (N. gonorrhoeae): 25 to 50 µM
MBC (M. luteus): 1.56 to 3.13 µM
MBC (P. aeruginosa): >100 µM
MBC (S. typhimutium): 50 to 100 µM
MBC (E. coli DH5α): 6.25 to 12.5 µM
